Reference: PubChem BioAssay AID330 (DTP/NCI, 2004)
Where “and” joins values, the source holds several entries; their conditions need not be identical. Identical values can stand only once. Toxic doses and inconclusive results are not listed.

System: P388 leukemia ip, CD2F1 mice, survival T/C
Assay: NCI In Vivo Anticancer Drug Screen. Data for tumor model P388 Leukemia (intraperitoneal) in CD2F1 (CDF1) mice
Conditions: endpoint: median survival time, higher = longer survival
Outline: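 Mice carrying the transplanted tumor received test compound or vehicle. Survival was recorded in each group, and the value is the treated-group measurement divided by that of the vehicle-treated control group.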

[1] = dose: 50.0 mg/kg/injection, schedule: Q01DX005 (ip), vehicle: saline with Tween-80
[2] = dose: 200.0 mg/kg/injection, schedule: Q01DX005 (ip), vehicle: saline with Tween-80
[3] = dose: 100.0 mg/kg/injection, schedule: Q01DX001 (ip), vehicle: saline with Tween-80
[4] = dose: 200.0 mg/kg/injection, schedule: Q01DX001 (ip), vehicle: saline with Tween-80
[5] = dose: 50.0 mg/kg/injection, schedule: Q01DX009 (ip), vehicle: saline
[6] = dose: 100.0 mg/kg/injection, schedule: Q01DX009 (ip), vehicle: saline
[7] = dose: 50.0 mg/kg/injection, schedule: Q01DX005 (ip), vehicle: saline
[8] = dose: 50.0 mg/kg/injection, schedule: Q01DX005 (ip), vehicle: Klucel (hydroxypropylcellulose) (HPC)
[9] = dose: 100.0 mg/kg/injection, schedule: Q01DX005 (ip), vehicle: Klucel (hydroxypropylcellulose) (HPC)
[10] = dose: 200.0 mg/kg/injection, schedule: Q01DX005 (ip), vehicle: Klucel (hydroxypropylcellulose) (HPC)
[11] = dose: 60.0 mg/kg/injection, schedule: Q01DX005 (ip), vehicle: Klucel (hydroxypropylcellulose) (HPC)
[12] = dose: 120.0 mg/kg/injection, schedule: Q01DX005 (ip), vehicle: Klucel (hydroxypropylcellulose) (HPC)
[13] = dose: 240.0 mg/kg/injection, schedule: Q01DX005 (ip), vehicle: Klucel (hydroxypropylcellulose) (HPC)
[14] = dose: 50.0 mg/kg/injection, schedule: Q01DX009 (ip), vehicle: saline with Tween-80
[15] = dose: 100.0 mg/kg/injection, schedule: Q01DX009 (ip), vehicle: saline with Tween-80
[16] = dose: 100.0 mg/kg/injection, schedule: Q04DX002 (ip), vehicle: saline with Tween-80
[17] = dose: 200.0 mg/kg/injection, schedule: Q04DX002 (ip), vehicle: saline with Tween-80
[18] = dose: 25.0 mg/kg/injection, schedule: Q04DX002 (ip), vehicle: saline with Tween-80
[19] = dose: 50.0 mg/kg/injection, schedule: Q04DX002 (ip), vehicle: saline with Tween-80

SMILES: CNc1nc(=S)nc(-c2ccccc2)s1
- T/C [1]: 100 % of control
- T/C (dose: 100.0 mg/kg/injection, schedule: Q01DX005 (ip), vehicle: saline with Tween-80): 106 % of control
- T/C [2]: 92 % of control

SMILES: CC(=O)OC1C(=C(Br)Br)C(COC(=O)c2ccccc2)OC1n1cnc2c(NC(=O)c3ccccc3)ncnc21 (configuration not stated)
- T/C [3]: 98 % of control
- T/C [4]: 90 % of control
- T/C (dose: 400.0 mg/kg/injection, schedule: Q01DX001 (ip), vehicle: saline with Tween-80): 92 % of control

SMILES: NC(=S)C(Cl)(Cl)Cl
- T/C (dose: 50.0 mg/kg/injection, schedule: Q01DX005 (ip), vehicle: saline + Tween-80 + alcohol): 116 % of control
- T/C (dose: 100.0 mg/kg/injection, schedule: Q01DX005 (ip), vehicle: saline + Tween-80 + alcohol): 119 % of control
- T/C (dose: 200.0 mg/kg/injection, schedule: Q01DX005 (ip), vehicle: saline + Tween-80 + alcohol): 113 % of control

SMILES: COC(=O)C1CC2C3C=CC(C4C(=O)NC(=O)C34)C12OC (configuration not stated)
- T/C [3]: 95 % of control
- T/C [4]: 92 % of control

SMILES: ONc1ccccc1C(F)(F)F
- T/C [5]: 97 % of control
- T/C [6]: 95 % of control

SMILES: CC(ON)C(=O)O (configuration not stated)
- T/C (dose: 6.25 mg/kg/injection, schedule: Q01DX005 (ip), vehicle: saline): 96 % of control
- T/C (dose: 12.5 mg/kg/injection, schedule: Q01DX005 (ip), vehicle: saline): 102 % of control
- T/C (dose: 25.0 mg/kg/injection, schedule: Q01DX005 (ip), vehicle: saline): 102 % of control
- T/C [7]: 99 % of control

SMILES: O=C1C2C[C@@H]3c4ccccc4N[C@@H]3N2C(=O)C2CCCN12 (some centres not stated)
- T/C [8]: 97 % of control
- T/C [9]: 102 % of control
- T/C [10]: 94 % of control

SMILES: COc1cc2c[n+]3c4c(cccc4c2cc1OC)CC3
- T/C (dose: 25.0 mg/kg/injection, schedule: Q01DX009 (ip), vehicle: water): 108 % of control
- T/C (dose: 50.0 mg/kg/injection, schedule: Q01DX009 (ip), vehicle: water): 118 % of control
- T/C (dose: 100.0 mg/kg/injection, schedule: Q01DX009 (ip), vehicle: water): 114 % of control

SMILES: O=C1CC(O)(c2ccccc2)CS1 (configuration not stated)
- T/C (dose: 100.0 mg/kg/injection, schedule: Q04DX003 (ip), vehicle: Klucel (hydroxypropylcellulose) (HPC)): 107 % of control
- T/C (dose: 200.0 mg/kg/injection, schedule: Q04DX003 (ip), vehicle: Klucel (hydroxypropylcellulose) (HPC)): 105 % of control
- T/C (dose: 400.0 mg/kg/injection, schedule: Q04DX003 (ip), vehicle: Klucel (hydroxypropylcellulose) (HPC)): 100 % of control

SMILES: C[C@]12CCC(=O)C=C1CC[C@H]1[C@@H]3C[C@@H](O)[C@](O)(C(=O)CO)[C@@]3(C)C[C@H](O)[C@@]12F
- T/C (dose: 25.0 mg/kg/injection, schedule: Q01DX009 (ip), vehicle: saline): 109 % of control
- T/C [5]: 109 % of control
- T/C [6]: 109 % of control

SMILES: CC1(C)OC(C)(C)C(=N\O)/C1=N/N
- T/C [11]: 102 % of control
- T/C [12]: 102 % of control
- T/C [13]: 106 % of control

SMILES: O=C(Nc1ccc(N=Nc2ccc3cc(S(=O)(=O)O)cc(S(=O)(=O)O)c3c2)cc1)c1ccc(N=Nc2c(O)ccc3cc(S(=O)(=O)O)cc(S(=O)(=O)O)c23)cc1
- T/C [7]: 104 % of control
- T/C (dose: 100.0 mg/kg/injection, schedule: Q01DX005 (ip), vehicle: saline): 99 % of control
- T/C (dose: 200.0 mg/kg/injection, schedule: Q01DX005 (ip), vehicle: saline): 98 % of control

SMILES: Cc1cc2cc3n(c2nn1)N=C(Cl)CC3
- T/C (dose: 60.0 mg/kg/injection, schedule: Q01DX005 (ip), vehicle: saline with Tween-80): 86 % of control
- T/C (dose: 120.0 mg/kg/injection, schedule: Q01DX005 (ip), vehicle: saline with Tween-80): 101 % of control

SMILES: CC1(Cl)CC(C)(/C=C/Cl)C(Br)CC1Cl (configuration not stated)
- T/C (dose: 41.5 mg/kg/injection, schedule: Q01DX005 (ip), vehicle: Klucel (hydroxypropylcellulose) (HPC)): 91 % of control
- T/C (dose: 83.0 mg/kg/injection, schedule: Q01DX005 (ip), vehicle: Klucel (hydroxypropylcellulose) (HPC)): 91 % of control
- T/C (dose: 166.0 mg/kg/injection, schedule: Q01DX005 (ip), vehicle: Klucel (hydroxypropylcellulose) (HPC)): 100 % of control

SMILES: OCCCC1CCCCN1 (configuration not stated)
- T/C (dose: 50.0 mg/kg/injection, schedule: Q01DX001 (ip), vehicle: saline): 107 % of control
- T/C (dose: 200.0 mg/kg/injection, schedule: Q01DX001 (ip), vehicle: saline): 100 % of control

SMILES: C[n+]1c(-c2cccc(OCCOCCOc3cccc(-c4c5cc(N)ccc5c5ccc(N)cc5[n+]4C)c3)c2)c2cc(N)ccc2c2ccc(N)cc21
- T/C (dose: 0.19 mg/kg/injection, schedule: Q01DX009 (ip), vehicle: water): 114 % of control
- T/C (dose: 0.39 mg/kg/injection, schedule: Q01DX009 (ip), vehicle: water): 114 % of control
- T/C (dose: 1.56 mg/kg/injection, schedule: Q01DX009 (ip), vehicle: water): 170 % of control
- T/C (dose: 3.13 mg/kg/injection, schedule: Q01DX009 (ip), vehicle: water): 172 % of control
- T/C (dose: 6.25 mg/kg/injection, schedule: Q01DX009 (ip), vehicle: water): 102 % of control

SMILES: CN(C)c1nc(=O)c2ccccc2o1
- T/C (dose: 15.0 mg/kg/injection, schedule: Q01DX005 (ip), vehicle: saline): 100 % of control
- T/C (dose: 30.0 mg/kg/injection, schedule: Q01DX005 (ip), vehicle: saline): 97 % of control
- T/C (dose: 60.0 mg/kg/injection, schedule: Q01DX005 (ip), vehicle: saline): 101 % of control and 95 % of control

SMILES: COc1cc(Br)c(CC(=O)c2ccc3c(c2)OCO3)cc1OC
- T/C [1]: 86 % of control
- T/C [2]: 87 % of control

SMILES: COC1/C=C/OC2(C)Oc3c(C)c(O)c4c(c3C2=O)C(=O)C=C(NC(=O)/C(C)=C\C=C\C(C)C(OC=O)C(C)C(O)C(C)C(OC(C)=O)C1C)C4=O (configuration not stated)
- T/C [14]: 100 % of control
- T/C [15]: 92 % of control
- T/C (dose: 200.0 mg/kg/injection, schedule: Q01DX009 (ip), vehicle: saline with Tween-80): 91 % of control

SMILES: COc1ccc2[s+]c(-c3ccccc3)ccc2c1
- T/C [11]: 100 % of control
- T/C [12]: 108 % of control
- T/C [13]: 111 % of control

SMILES: O=c1c2ccccc2ncn1S(=O)(=O)c1ccc(N(CCCl)CCCl)cc1
- T/C [16]: 110 % of control
- T/C [17]: 118 % of control

SMILES: CCN(CC)C(=O)c1cncc(C(N)=O)c1
- T/C [11]: 110 % of control
- T/C [12]: 111 % of control
- T/C [13]: 101 % of control

SMILES: O=C1CSC(c2ccccc2Cl)N1N1C(=O)CSC1c1ccccc1Cl (configuration not stated)
- T/C [11]: 100 % of control
- T/C [12]: 93 % of control
- T/C [13]: 98 % of control

SMILES: CSCNC(=S)Nc1ccc(Cl)cc1
- T/C (dose: 50.0 mg/kg/injection, schedule: Q01DX009 (ip), vehicle: Klucel (hydroxypropylcellulose) (HPC)): 94 % of control

SMILES: CC1(C)OC(CP(=O)(c2ccccc2)c2ccccc2)C(CP(=O)(c2ccccc2)c2ccccc2)O1 (configuration not stated)
- T/C [8]: 97 % of control
- T/C [9]: 97 % of control
- T/C [10]: 94 % of control

SMILES: CCC[CH2][Sn](=[O])[c]1ccccc1
- T/C (dose: 12.5 mg/kg/injection, schedule: Q04DX002 (ip), vehicle: saline with Tween-80): 100 % of control and 119 % of control
- T/C [18]: 103 % of control and 106 % of control
- T/C [19]: 103 % of control and 109 % of control
- T/C [16]: 103 % of control and 116 % of control

SMILES: CCOC(=O)c1c(C)c(C(=O)OCC)n2cnc(C(=O)OC)cc12
- T/C [18]: 97 % of control
- T/C [19]: 106 % of control and 94 % of control
- T/C [16]: 103 % of control and 122 % of control and 97 % of control
- T/C [17]: 104 % of control (2×) and 97 % of control
- T/C (dose: 400.0 mg/kg/injection, schedule: Q04DX002 (ip), vehicle: saline with Tween-80): 113 % of control

SMILES: CC1CCC(C(=O)C(Cl)C(Cl)C2CCCCC2)CC1 (configuration not stated)
- T/C [8]: 92 % of control
- T/C [9]: 92 % of control

SMILES: CC(=O)OCN(C)N=Nc1ccc(Br)cc1
- T/C (dose: 36.0 mg/kg/injection, schedule: Q01DX005 (ip), vehicle: Klucel (hydroxypropylcellulose) (HPC)): 94 % of control
- T/C (dose: 72.0 mg/kg/injection, schedule: Q01DX005 (ip), vehicle: Klucel (hydroxypropylcellulose) (HPC)): 92 % of control

SMILES: Cc1ccc2c(c1)N=C(Nc1ccccc1)N=S2(C)=O (configuration not stated)
- T/C (dose: 12.5 mg/kg/injection, schedule: Q01DX009 (ip), vehicle: saline with Tween-80): 93 % of control
- T/C (dose: 25.0 mg/kg/injection, schedule: Q01DX009 (ip), vehicle: saline with Tween-80): 92 % of control
- T/C [14]: 117 % of control and 119 % of control
- T/C [15]: 104 % of control
